The values that follow come from ChEMBL document CHEMBL1201862, “PubChem BioAssay data set” (2004).

SMILES strings stand for the structures.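 Results reflect a 48-hour exposure of cells in 96-well plates to compound at five concentrations. GI50 is the concentration that inhibits growth by half.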 Activity calls are given as the source filed them. Cut-off read from the data, not from the text of the source: active = GI50 up to about 1.1 µM and inactive = higher. Bounds are passed on as bounds.

Some test systems named below: RPMI-8226; OVCAR-5; HCT-116; LOX IMVI; MCF7; SF-295; A498; SR; BT-549; HT-29; SK-MEL-5; EKVX; SF-268; OVCAR-3; OVCAR-4; HCT-15; Hs-578T; A549; M14; CCRF-CEM.
Experiment in all cases: inhibition of tumour cell growth, NCI panel, 48 h

In the case of `CC(C)=CCOC(=O)C(C)=[N+]=[N-]`, the GI50 in the assay on RPMI-8226, in the assay on OVCAR-5, in the assay with HCT-116, in the assay with LOX IMVI, in the assay on MCF7 and with SF-295 was > 100 µM (inactive) in each case. The GI50 in the assay with A498, in the assay on SR, with BT-549, in the assay with HT-29, in the assay with SK-MEL-5 and in the assay with EKVX was > 100 µM (inactive) throughout. The GI50 in the assay with SF-268 was > 100 µM (inactive); in the assay with OVCAR-3, > 100 µM (inactive); in the assay with OVCAR-4, > 100 µM (inactive); with HCT-15, above 100 µM; in the assay on Hs-578T it was > 100 µM (inactive).
As to `O=C1C(Br)=C(Br)C(=O)c2c(O)ccc(O)c21`, the GI50 with RPMI-8226 was 0.721 µM (active); with A549, 19.3 µM (inactive); in the assay on OVCAR-5 it was 17 µM (inactive); in the assay on HCT-116, 3.56 µM (inactive); in the assay with MCF7, 2.42 µM (inactive); in the assay with SF-295, 17.8 µM (inactive). Also, the GI50 with A498 was 21.7 µM (inactive); with SR, 0.0352 µM (active); in the assay on BT-549 it was 13.9 µM (inactive); in the assay on HT-29, 3.15 µM (inactive); in the assay on SK-MEL-5, 9.14 µM (inactive); in the assay on EKVX, 20.7 µM (inactive). The GI50 in the assay on SF-268 is 16.9 µM (inactive); with OVCAR-3, 5.85 µM (inactive); in the assay on OVCAR-4, 3.6 µM (inactive); in the assay with M14, 1.85 µM (inactive); in the assay on HCT-15, 2.19 µM; with Hs-578T, 27.1 µM (inactive). Further, in the assay with CCRF-CEM, the GI50 was 0.189 µM (active).
As for `COc1ccc(CNc2nc3ccccc3nc2-c2cccs2)cc1`, the GI50 in the assay on RPMI-8226 is 21.5 µM (inactive); in the assay with A549, 33.1 µM (inactive); with OVCAR-5, > 100 µM (inactive); in the assay on HCT-116 it was 26.7 µM (inactive); in the assay with LOX IMVI, 12.2 µM (inactive); in the assay on MCF7 it was 28.3 µM (inactive). The GI50 in the assay on SF-295 was 46.7 µM (inactive); in the assay on A498, 29.4 µM (inactive); with SR, 15.6 µM (inactive); in the assay on BT-549 it was 22.1 µM (inactive); with HT-29 it was 18.9 µM (inactive); in the assay on SK-MEL-5 it was 23.8 µM (inactive). In addition, the GI50 in the assay with EKVX was 97.9 µM (inactive); in the assay on SF-268, > 100 µM (inactive); in the assay with OVCAR-3, 37.4 µM (inactive); in the assay with OVCAR-4, 29.9 µM (inactive); in the assay with HCT-15, 35.4 µM; with Hs-578T it was 23.4 µM (inactive). The GI50 in the assay with CCRF-CEM was 25.9 µM (inactive).
Turning to `CCC(Cc1cnc2nc(N)nc(N)c2n1)c1ccc(C(=O)NC(CCC(=O)O)C(=O)O)cc1` (stereo not drawn), the GI50 in the assay on A549 is 0.000507 µM (active); with OVCAR-5 it was 0.01 µM (active); with HCT-116, < 0.0001 µM (active); in the assay on LOX IMVI, 0.000247 µM (active); in the assay with MCF7 it was 0.0628 µM (active); in the assay with SF-295, 0.01 µM (active). Further, the GI50 in the assay with A498 is > 100 µM (inactive); in the assay with SR it was 0.01 µM (active); with BT-549, > 100 µM (inactive); in the assay on HT-29, 0.000327 µM (active); with SK-MEL-5, 0.00539 µM (active); in the assay on EKVX, 0.000249 µM (active). The GI50 was 0.00075 µM (active) in the assay with SF-268; 0.000899 µM (active) with M14; 0.000632 µM in the assay on HCT-15; 10.7 µM (inactive) with Hs-578T; < 0.0001 µM (active) with CCRF-CEM.
Turning to `COc1ccc(CC2c3cc(OC)c(OC)c(OC)c3CC[N+]2(C)C)cc1Oc1ccc(CC2c3cc4c(c(OC)c3CC[N+]2(C)C)OCO4)cc1` (stereo not drawn), the GI50 in the assay on A549 was 34.4 µM (inactive); in the assay with OVCAR-5, > 100 µM (inactive); in the assay with HCT-116, > 100 µM (inactive); with LOX IMVI it was > 100 µM (inactive); in the assay with MCF7, 96.2 µM (inactive); in the assay on SF-295, > 100 µM (inactive). The GI50 in the assay with A498, in the assay on SR, with BT-549, in the assay with HT-29, in the assay with SK-MEL-5 and in the assay on EKVX was > 100 µM (inactive) throughout. The GI50 was > 100 µM (inactive) with SF-268; > 100 µM (inactive) in the assay on OVCAR-4; > 100 µM (inactive) in the assay on M14; above 100 µM in the assay on HCT-15; 80.9 µM (inactive) with Hs-578T; > 100 µM (inactive) in the assay with CCRF-CEM.
`Cc1[nH]c(/C=C2\C(=O)Nc3ccccc32)c(C)c1CCC(=O)O` [ORANTINIB]: the GI50 in the assay with RPMI-8226 is 22.8 µM (inactive); in the assay with A549, 33.9 µM (inactive); in the assay on OVCAR-5, 27.5 µM (inactive); with HCT-116, 31.1 µM (inactive); in the assay on LOX IMVI, 28.4 µM (inactive); in the assay on MCF7, 28.1 µM (inactive). The GI50 in the assay with SF-295 is 32.5 µM (inactive); in the assay on A498, 55 µM (inactive); in the assay on SR, 23.9 µM (inactive); with BT-549, 34.1 µM (inactive); in the assay on SK-MEL-5, 26.5 µM (inactive); with EKVX it was 28.5 µM (inactive). Besides, the GI50 is 34.4 µM (inactive) in the assay on SF-268; 22.1 µM (inactive) with OVCAR-3; 33.6 µM (inactive) in the assay with OVCAR-4; 23.1 µM (inactive) in the assay with M14; 31.4 µM in the assay with HCT-15; 37.9 µM (inactive) in the assay with Hs-578T. The GI50 in the assay on CCRF-CEM was 34.7 µM (inactive).
For `CCCCCCCC/C=C\CCCCCCC/C=C1/C[C@](/C=C/C(=O)OC)(CO)OC1=O`, the GI50 with A549 is 2.37 µM (inactive); in the assay on OVCAR-5, 7.46 µM (inactive); in the assay with HCT-116, 4.56 µM (inactive); in the assay with LOX IMVI it was 1.6 µM (inactive); in the assay with MCF7, 7.41 µM (inactive); with SF-295 it was 2.29 µM (inactive). Also, the GI50 in the assay with A498 is 8.67 µM (inactive); in the assay on SR, 3.92 µM (inactive); with BT-549, 5.02 µM (inactive); in the assay with HT-29 it was 7.71 µM (inactive); with SK-MEL-5, 2.84 µM (inactive); in the assay with EKVX, 9.73 µM (inactive). Further, the GI50 is 6.9 µM (inactive) with SF-268; 11.6 µM (inactive) in the assay with OVCAR-3; 6.58 µM (inactive) with OVCAR-4; 2.05 µM (inactive) in the assay on M14; 8.41 µM with HCT-15; 0.923 µM (active) with Hs-578T. The GI50 in the assay on CCRF-CEM is 1.01 µM (active).
For `O=c1cccccc1O` [TROPOLONE], the GI50 in the assay with RPMI-8226 is 86.9 µM (inactive); in the assay on A549 it was > 100 µM (inactive); in the assay on OVCAR-5, > 100 µM (inactive); in the assay on HCT-116 it was 32 µM (inactive); with LOX IMVI, 34.7 µM (inactive); in the assay on MCF7 it was 44 µM (inactive). The GI50 in the assay with SF-295 was 93.3 µM (inactive); with SR, 46.7 µM (inactive); in the assay on BT-549 it was 87.1 µM (inactive); in the assay with HT-29 it was 41.8 µM (inactive); in the assay with SK-MEL-5 it was 83 µM (inactive); in the assay with EKVX, > 100 µM (inactive). Further, the GI50 is 35.7 µM (inactive) in the assay on SF-268; 34 µM (inactive) in the assay on OVCAR-3; 94 µM (inactive) in the assay on OVCAR-4; > 100 µM (inactive) in the assay with M14; 34 µM in the assay on HCT-15; 91.8 µM (inactive) in the assay with Hs-578T. The GI50 in the assay with CCRF-CEM is 17.4 µM (inactive).
Regarding `O=C(OC1=CCN(Br)C1=O)C1=C(O)C(=O)N(Br)C1`, the GI50 is 24.4 µM (inactive) in the assay with RPMI-8226; 42.9 µM (inactive) in the assay on A549; 21.1 µM (inactive) in the assay with OVCAR-5; 17.8 µM (inactive) in the assay with HCT-116; 20.9 µM (inactive) in the assay on LOX IMVI; 33 µM (inactive) in the assay on MCF7. For the same compound, the GI50 is 26.9 µM (inactive) in the assay with SF-295; > 100 µM (inactive) in the assay on A498; 21.4 µM (inactive) with SR; 18.2 µM (inactive) in the assay on BT-549; 17.2 µM (inactive) in the assay on SK-MEL-5; 25.1 µM (inactive) in the assay on EKVX. In addition, the GI50 with SF-268 is 24.9 µM (inactive); in the assay on OVCAR-3, 20.8 µM (inactive); with OVCAR-4 it was 30 µM (inactive); in the assay on M14, 51.8 µM (inactive); with HCT-15 it was 57.3 µM; with Hs-578T it was 27 µM (inactive). The GI50 with CCRF-CEM is 27.1 µM (inactive).
In the case of `Cc1ccc([N+](=O)[O-])cc1S(=O)(=O)Nc1ccc(C2=NN(c3ccc([N+](=O)[O-])cc3[N+](=O)[O-])C(c3cccs3)C2)cc1` (stereo not drawn), the GI50 with RPMI-8226 is 10.9 µM (inactive); in the assay with A549 it was 19.5 µM (inactive); with OVCAR-5, 43.9 µM (inactive); with HCT-116, 14.9 µM (inactive); in the assay with LOX IMVI it was 18.3 µM (inactive); in the assay on MCF7, 17.3 µM (inactive). The GI50 was 25.6 µM (inactive) with SF-295; 21 µM (inactive) in the assay on SR; 20.7 µM (inactive) in the assay on BT-549; 25.9 µM (inactive) in the assay with HT-29; 11.5 µM (inactive) in the assay with SK-MEL-5; 15.8 µM (inactive) in the assay with EKVX. Besides, the GI50 was 16.4 µM (inactive) in the assay on SF-268; 16.1 µM (inactive) with OVCAR-3; 18.5 µM (inactive) in the assay on OVCAR-4; 15 µM (inactive) in the assay with M14; 15.4 µM in the assay with HCT-15; 23.8 µM (inactive) in the assay with Hs-578T. For the same compound, the GI50 with CCRF-CEM is 24.5 µM (inactive).
With `Cc1[nH]n(C(=N)N)c(=O)c1CCO`, the GI50 in the assay with A549, in the assay on OVCAR-5, in the assay on HCT-116, in the assay on LOX IMVI, in the assay with MCF7 and in the assay with SF-295 was > 100 µM (inactive) each time. Moreover, the GI50 with A498 is > 100 µM (inactive); in the assay on SR it was 17.1 µM (inactive); with BT-549 it was > 100 µM (inactive); with HT-29 it was > 100 µM (inactive); with SK-MEL-5 it was > 100 µM (inactive); in the assay on SF-268, > 100 µM (inactive). Besides, the GI50 with OVCAR-3 was > 100 µM (inactive); with OVCAR-4, > 100 µM (inactive); in the assay with M14 it was > 100 µM (inactive); in the assay on HCT-15, above 100 µM; with Hs-578T it was > 100 µM (inactive); in the assay with CCRF-CEM, > 100 µM (inactive).
